Laboratory results reported in patent US11230717B2, “Plants having increased tolerance to herbicides” (BASF SE, priority 2013, dated 2022).
pKi: −log10 of the molar value.

Legend:
Picrophilus HPPD = assay: HPPD activity assay, in vitro characterization; format: biochemical, Picrophilus torridus; settings: normalized to Hordeum SEQ ID NO:2
Method: (§1) HPPD produces homogentisic acid and CO2 from 4-hydroxyphenylpyruvate (4-HPP) and O2. The activity assay for HPPD is based on the analysis of homogentisic acid by reversed phase HPLC.
(§2) The assay mixture can contain 150 mM potassium phosphate buffer pH 7.0, 50 mM L-ascorbic acid, 100 μM Catalase (Sigma-Aldrich), 1 μM FeSO4 and 0.2 units of purified HPPD enzyme in a total volume of 505 μl. 1 unit is defined as the amount of enzyme that is required to produce 1 nmol of HGA per minute at 20° C.
(§3) After a preincubation of 30 min the reaction is started by adding 4-HPP to a final concentration of 0.05 mM. The reaction is allowed to proceed for 45 min at room temperature. The reaction is stopped by the addition of 50 μl of 4.5 M phosphoric acid. The sample is filtered using a […] pore size PVDF filtration device.
(§4) 5 μl of the cleared sample is analyzed on an UPLC HSS T3 column (particle size 1.8 μm, dimensions 2,1×50 mm; Waters) by isocratic elution using 90% 20 mM NaH2PO4 pH 2.2, 10% methanol (v/v).
(§5) HGA is detected electrochemically at 750 mV (mode: DC; polarity: positive) and quantified by integrating peak areas (Empower software; Waters).
Inhibitors are dissolved in DMSO (dimethylsulfoxide) to a concentration of 0.5 mM. From this stock solution serial five-fold dilutions are prepared in DMSO, which are used in the assay. […] IC50 values are calculated using non-linear regression. […]

Arabidopsis HPPD = biological target: T1, Arabidopsis HPPD (Arabidopsis thaliana, UniProt P93836); assay: HPPD activity assay (homogentisic acid by HPLC), in vitro characterization; format: biochemical; settings: for Normalized tolerance index (TI): Arabidopsis HPPD Wildtype (SEQ ID: 53), reference
T1 construct: His6 (N); made in house; host or cells: E. coli BL21 (DE3)
T1 sequence (P93836 1-445): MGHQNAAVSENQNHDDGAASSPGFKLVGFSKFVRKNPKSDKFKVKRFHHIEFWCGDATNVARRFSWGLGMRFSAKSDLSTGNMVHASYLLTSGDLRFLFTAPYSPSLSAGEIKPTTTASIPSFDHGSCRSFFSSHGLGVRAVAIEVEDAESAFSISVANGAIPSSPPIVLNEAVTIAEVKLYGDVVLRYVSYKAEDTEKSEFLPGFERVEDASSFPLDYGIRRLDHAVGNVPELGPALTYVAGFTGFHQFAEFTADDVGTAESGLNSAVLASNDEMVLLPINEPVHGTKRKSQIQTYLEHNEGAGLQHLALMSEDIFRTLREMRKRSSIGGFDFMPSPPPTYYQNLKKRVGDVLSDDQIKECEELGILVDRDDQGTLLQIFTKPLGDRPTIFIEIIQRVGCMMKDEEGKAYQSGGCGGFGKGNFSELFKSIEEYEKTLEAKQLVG
Method: as §1, §2, §3, §4, §5
(§6) Inhibitors are dissolved in DMSO (dimethylsulfoxide) to a concentration of 0.5 mM. From this stock solution serial five-fold dilutions are prepared in DMSO, which are used in the assay. The respective inhibitor solution accounts for 1% of the assay volume. […] Activities are normalized by setting the uninhibited enzyme activity to 100%. IC50 values are calculated using non-linear regression.
Using methods which are described in the above examples or well known in the art, purified, recombinant wildtype HPPD enzymes are characterized with respect to their kinetic properties and sensitivity towards HPPD inhibiting herbicides. Apparent michaelis constants (Km) and maximal reaction velocities (Vmax) are calculated by non-linear regression with the software GraphPad Prism 5 (GraphPad Software, La Jolla, USA) using a substrate inhibition model. […] Weighted means (by standard error) of Km and IC50 values are calculated from at least three independent experiments. […] To assess the potential performance of a herbicide tolerance trait a tolerance index (TI) is calculated using the following formula: […]

[1] = biological target: T2, Arabidopsis HPPD variant F381L (Arabidopsis thaliana, UniProt P93836, F381L); assay: HPPD activity assay, in vitro characterization of HPPD mutants; format: biochemical; settings: normalized to wildtype
T2 construct: His6 (N); made in house; host or cells: E. coli BL21 (DE3)
T2 sequence (P93836 whole entry F381L): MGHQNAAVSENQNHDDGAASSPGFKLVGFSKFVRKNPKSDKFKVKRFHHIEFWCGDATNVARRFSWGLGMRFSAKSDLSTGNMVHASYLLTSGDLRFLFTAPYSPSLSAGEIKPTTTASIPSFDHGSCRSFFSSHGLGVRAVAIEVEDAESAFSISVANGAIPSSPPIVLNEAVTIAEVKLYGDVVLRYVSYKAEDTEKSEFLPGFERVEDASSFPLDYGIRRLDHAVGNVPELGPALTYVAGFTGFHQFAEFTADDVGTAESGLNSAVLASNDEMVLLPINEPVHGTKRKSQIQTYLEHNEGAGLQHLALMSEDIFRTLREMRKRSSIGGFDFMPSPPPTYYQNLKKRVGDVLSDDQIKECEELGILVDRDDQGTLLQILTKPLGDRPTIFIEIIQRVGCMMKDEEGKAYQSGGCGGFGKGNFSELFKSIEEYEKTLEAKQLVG
Method: as §1, §2, §3, §4, §5, §6
Purified, mutant HPPD enzymes are obtained by the methods described above. Dose response and kinetic measurements are carried out using the described HPPD activity assay. Apparent michaelis constants (Km) and maximal reaction velocities (Vmax) are calculated by non-linear regression with the software GraphPad Prism 5 (GraphPad Software, La Jolla, USA) using a substrate inhibition model. […] Weighted means (by standard error) of Km and IC50 values are calculated from at least three independent experiments.
Field performance of the optimized HPPD enzyme, which is used as a herbicide tolerance trait may depend not only on its lack of sensitivity towards HPPD inhibiting herbicides but also on its activity. To assess the potential performance of a herbicide tolerance trait a tolerance index (TI) is calculated using the following formula: […]

[2] = tested on: Zea mays HPPD mutant Seq ID 69; assay: HPPD activity assay, in vitro characterization; format: biochemical; settings: normalized to Hordeum SEQ ID NO:2
Method: as §1, §2, §3, §4, §5
(§7) Inhibitors are dissolved in DMSO (dimethylsulfoxide) to a concentration of 0.5 mM. From this stock solution serial five-fold dilutions are prepared in DMSO, which are used in the assay. The respective inhibitor solution accounts for 1% of the assay volume. Thus, final inhibitor concentrations range from […], respectively. Activities are normalized by setting the uninhibited enzyme activity to 100%. IC50 values are calculated using non-linear regression.
(§8) Using methods which are described in the above examples or well known in the art, purified, recombinant wildtype HPPD enzymes are characterized with respect to their kinetic properties and sensitivity towards HPPD inhibiting herbicides. Apparent michaelis constants (Km) and maximal reaction velocities (Vmax) are calculated by non-linear regression with the software GraphPad Prism 5 (GraphPad Software, La Jolla, USA) using a substrate inhibition model. Apparent kcat values are calculated from Vmax assuming 100% purity of the enzyme preparation. Weighted means (by standard error) of Km and IC50 values are calculated from at least three independent experiments. The Cheng-Prusoff equation for competitive inhibition (Cheng, Y. C.; Prusoff, W. H. Biochem Pharmacol 1973, 22, 3099-3108) is used to calculate dissociation constants (Ki). • Field performance of the HPPD enzyme, which is used as a herbicide tolerance trait, may depend not only on its lack of sensitivity towards HPPD inhibiting herbicides but also on its activity. To assess the potential performance of a herbicide tolerance trait a tolerance index (TI) is calculated using the following formula: […]
(§9) The reference SEQ ID NO:2 was included as a comparative control in a representative number of experiments and the values given in Table 12 are the average values from a number of experiments. The TI values given for various HPPD enzymes from different organisms are normalized to the value of the reference SEQ ID NO:2.

[3] = tested on: Zea mays HPPD mutant Seq ID 67; assay: HPPD activity assay, in vitro characterization; format: biochemical; settings: normalized to Hordeum SEQ ID NO:2
Method: as §1, §2, §3, §4, §5, §7, §8, §9

Rhodococcus HPPD2 = assay: HPPD activity assay, in vitro characterization; format: biochemical; settings: normalized to Hordeum SEQ ID NO:2
Method: as §1, §2, §3, §4, §5, §7, §8, §9

Rhodococcus HPPD1 = assay: HPPD activity assay, in vitro characterization; format: biochemical; settings: normalized to Hordeum SEQ ID NO:2
Method: as §1, §2, §3, §4, §5, §7, §8, §9

Lolium HPPD = assay: HPPD activity assay, in vitro characterization; format: biochemical; settings: normalized to Hordeum SEQ ID NO:2
Method: as §1, §2, §3, §4, §5, §7, §8, §9

Kordia HPPD = assay: HPPD activity assay, in vitro characterization; format: biochemical; settings: normalized to Hordeum SEQ ID NO:2
Method: as §1, §2, §3, §4, §5, §7, §8, §9

Cn1nnnc1NC(=O)c1c(F)cc(Cl)c(S(C)(=O)=O)c1Cl [Inhibitor 1, 2,4-dichloro-6-fluoro-3-methylsulfonyl-N-(1-methyltetrazol-5-yl)benzamide]
Normalized tolerance index (TI) (Picrophilus HPPD): 2.1
pKi (Arabidopsis HPPD): 7.82
Normalized tolerance index (TI) (Arabidopsis HPPD): 1
TI (tolerance index) (Arabidopsis HPPD; Arabidopsis HPPD, not normalized): 15E−3
Normalized tolerance index (TI) [1]: 1.2
Normalized tolerance index (TI) [2]: 1.4
Normalized tolerance index (TI) [3]: 5
Normalized tolerance index (TI) (Rhodococcus HPPD2): 2.8
Normalized tolerance index (TI) (Rhodococcus HPPD1): 2.8
Normalized tolerance index (TI) (Lolium HPPD): 4.2
Normalized tolerance index (TI) (Kordia HPPD): 1.2

CSc1c(Cl)cc(F)c(C(=O)Nc2ncnn2C)c1Cl [Inhibitor 3, 2,4-dichloro-6-fluoro-3-methylsulfanyl-N-(2-methyl-1,2,4-triazol-3-yl)benzamide]
Normalized tolerance index (TI) (Picrophilus HPPD): 0.7
Normalized tolerance index (TI) (Arabidopsis HPPD): 1
Normalized tolerance index (TI) [1]: 0.2
Normalized tolerance index (TI) [2]: 0.7
Normalized tolerance index (TI) [3]: 3.8
Normalized tolerance index (TI) (Rhodococcus HPPD2): 12.5
Normalized tolerance index (TI) (Rhodococcus HPPD1): 0.4
Normalized tolerance index (TI) (Lolium HPPD): 1.7
Normalized tolerance index (TI) (Kordia HPPD): 3.1
